The target of experiment [1] is T1, 5HT1A receptor (Rattus norvegicus, UniProt P19327).
T1 sequence (P19327 1-422): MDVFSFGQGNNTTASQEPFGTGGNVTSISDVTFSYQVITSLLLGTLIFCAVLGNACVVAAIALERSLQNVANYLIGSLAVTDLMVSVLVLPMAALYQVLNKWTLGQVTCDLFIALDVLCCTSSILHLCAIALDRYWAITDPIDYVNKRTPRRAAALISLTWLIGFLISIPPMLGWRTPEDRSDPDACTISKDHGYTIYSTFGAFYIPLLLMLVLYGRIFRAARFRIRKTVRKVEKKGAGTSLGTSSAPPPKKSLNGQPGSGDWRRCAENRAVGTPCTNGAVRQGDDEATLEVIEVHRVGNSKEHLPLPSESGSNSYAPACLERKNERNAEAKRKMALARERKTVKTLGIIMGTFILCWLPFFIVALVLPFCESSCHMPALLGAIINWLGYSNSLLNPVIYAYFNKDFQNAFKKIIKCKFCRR
Description: 5-HT1A receptor binding activity in rat hippocampal membrane homogenate. Also on record: rat hippocampal membrane homogenate; from tissue; host or cells: rat hippocampus (membrane homogenate). The method, then:
The compounds of the invention were tested for 5-HT1A receptor binding activity in rat hippocampal membrane homogenate by the method of B S Alexander and M D Wood, J Pharm Pharmacol, 1988, 40, 888-891.

Experiment [2] has as its target T1, 5HT1A receptor. Description: 5HT1A receptor antagonism: antagonism of 8-OH DPAT syndrome in the rat. Type of experiment: in vivo. As to conditions: antagonism of 8-hydroxy-2-(di-n-propylamino)-tetralin (8-OH DPAT) syndrome in the rat; s.c. Also on record: (8-OH DPAT) syndrome in the rat; from tissue; host or cells: whole animal (rat), in vivo. The method, then:
The compounds were also tested for 5HT1A receptor antagonism activity in a test involving the antagonism of 8-hydroxy-2-(di-n-propylamino)-tetralin (8-OH DPAT) syndrome in the rat. The results are given below

For experiment [3], the system named is mouse exploratory activity. Description: Potential anxiolytic activity: mouse exploratory activity in a two-compartment light/dark box. The class given is in vivo. As to conditions: s.c. How it is done: The compounds were also tested for potential anxiolytic activity by a test procedure measuring mouse exploratory activity in a two-compartment light/dark box based upon the procedure of B Costall et al, Neuropharmacology, 1987, 26, 195-200 and J.N. Crawley et al, Pharmac. Biochem. Behav. 1980, 13, 167-170. The results are given below

By IC50 is commonly meant the midpoint of a concentration-inhibition curve. A low value points to greater potency in that assay. For the compound `COc1ccccc1N1CCN(CCC(C(=O)N2CCCCCC2)c2ccccc2)CC1` (single isomer, unassigned) [Compound C, 2,3,4,5,6,7-Hexahydro-1-⁅4-[1-[4-(2-methoxyphenyl)-piperazinyl]]-2-phenylbutyryl⁆-1H-azepine], in experiment [1], the half-inhibitory concentration (IC50) came to 1 nM.

`COc1ccccc1N1CCN(CCC(C(=O)N2CCCCCC2)c2ccccc2)CC1` (stereo not drawn) [Compound A, 2,3,4,5,6,7-hexahydro-1-{4-[1-[4-(2-methoxyphenyl)-piperazinyl]]-2-phenylbutyryl}-1H-azepine] yielded an IC50 in experiment [1] of 3 nM. Further, the MED in experiment [2] and in experiment [3] was 0.03 mg/kg; s.c throughout.

In the case of `COc1ccccc1N1CCN(CC(C(=O)N2CCCCCC2)c2ccccc2)CC1` (stereo not drawn) [Compound B, 2,3,4,5,6,7-hexahydro-1-⁅3-⁅1-[4-(2-methoxyphenyl)piperazinyl]⁆-2-phenylpropionyl⁆-1H-azepine, reference compound], the MED is 0.3 mg/kg; s.c in experiment [2] and 1 mg/kg; s.c in experiment [3].

Source of the values: patent publication EP0481744B1, “Piperazine derivatives” (JOHN WYETH & BROTHER LIMITED, priority 1990, dated 1992).
